From patent US20240034743A9, “TRICYCLIC COMPOUNDS AS EGFR INHIBITORS” (QILU PHARMACEUTICAL CO., LTD., priority 2020, published 2024)
Like-named read-outs stand apart in the source and are kept apart here.

What was measured:
[1] = target: EGFR WT (wild type EGFR) (Homo sapiens (Human), UniProt P00533); experiment: In vitro enzymatic TR-FRET (HTRF KinEASE-TK) kinase assay, EGFR WT; format: biochemical; conditions: kinase activity, TR-FRET; read-out: EGFR (WT) IC50
Description: (I) In Vitro Enzymatic Experiment for EGFR WT and EGFR L858R/T790M/C797S
In the assay, the inhibition effect of the compound on the kinase activity of EGFR WT (wild type EGFR) and EGFR L858R/T790M/C797S was tested by adopting a time-resolved fluorescence resonance energy transfer (TR-FRET) method, and half maximal inhibitory concentration IC50 of the compound on the kinase activity of EGFR was obtained.
EGFR recombinase and EGFR L858R/T790M/C797S recombinase, purchased from Signalchem.
HTRF KinEASE-TK kit, purchased from Cisbio.
DTT, MnCl2, and MgCl2, purchased from Sigma.
ATP, purchased from Promega.
(§1) Brigatinib, purchased from Selleck.
1) 1× working solution was prepared: 5 mM MgCl2; 1 mM DTT; 1 mM MnCl2 and 1× kinase buffer (in kit).
2) […] of gradiently-diluted compound was transferred to a 384-well plate using Echo 550 (Labcyte).
3) 5 μL of 2× EGFR WT or EGFR L858R/T790M/C797S recombinase solution was added to the 384-well plate, and the plate was incubated at room temperature for 10 min.
4) 5 μL of 2× TK-substrate-biotin substrate solution (containing ATP) was added to the 384-well plate, and the plate was incubated at room temperature for 40 min.
5) 5 μL of assay solution containing Sa-XL 665 HTRF and 5 μL of TK-antibody-Cryptatewas were added to the plate, and the plate was incubated at room temperature for 1 h.
6) The fluorescence signal values at 615 nm and 665 nm were measured for each well using an Envision microplate reader (PerkinElmer).
7) The ratio of fluorescence signal values at 665 nm and 615 nm was calculated for each well.
8) Data analysis was performed using GraphPad Prism software to give the IC50 for compounds.

[2] = tested on: A431 cells (EGFR WT); experiment: A431 cell proliferation inhibition assay (CellTiter-Glo); format: cell-based; conditions: Homo sapiens
Description: A431 Cell Proliferation Inhibition Assay
In the assay, the inhibition effect of the compounds on the proliferation of A431 cells was tested by adopting a CellTiter-Glo method, and the concentration IC50 of the compound for inhibiting half maximal growth of cells was obtained.
A431 cells, purchased from ATCC.
DMEM medium, fetal bovine serum (FBS), and Penicillin-Streptomycin, purchased from GIBCO.
as §1
(§2) CellTiter-Glo reagent, purchased from Promega.
1) A431 cells were seeded in a 384-well plate at a density of 800 cells/well with 30 μL/well, and the plate was cultured in a cell incubator for 24 h (37° C., 5% CO2).
(§3) 2) Day 0: […] of gradiently-diluted compounds to be tested with a final concentration of DMSO of 0.1% was added to plate using Echo, and the plate was incubated in a cell incubator for 72 h (37° C., 5% CO2). […] of DMSO was added into each well in blank control group.
(§4) 3) Day 3: 30 μL Cell Titer-Glo reagent was added to each well, and the plate was in the dark under room temperature for 30 min.
(§5) 4) The chemiluminescent signal was detected by an Envision plate reader (PerkinElmer).
(§6) 5) Data analysis was performed using GraphPad Prism software to give the IC50 for compounds.

[3] = tested on: Ba/F3_Del19/T790M/C797S cells; experiment: Ba/F3_Del19/T790M/C797S cell proliferation inhibition assay (CellTiter-Glo); format: cell-based; conditions: Mus musculus
Description: Ba/F3_Del19/T790M/C797S Cell Proliferation Inhibition Assay
In the assay, the inhibition effect of the compounds on the proliferation of Ba/F3_Del19/T790M/C797S cells was tested by adopting a CellTiter-Glo method, and the concentration IC50 of the compound for inhibiting half maximal growth of cells was obtained.
Ba/F3_Del19/T790M/C797S, purchased from Kyinno Biotechnology Co., Ltd. 1640 medium, fetal bovine serum (FBS), Penicillin-Streptomyces, and GlutaMAX-I Supplement, purchased from GIBCO.
as §1, §2
1) Ba/F3_Del19/T790M/C797S cells were seeded in a 384-well plate at a density of 700 cells/well with 30 μL/well.
as §3, §4, §5
Data analysis was performed using GraphPad Prism 6 software to give the IC50 for compounds.

[4] = tested on: Ba/F3_L858R/T790M/C797S cells; experiment: Ba/F3_L858R/T790M/C797S cell proliferation inhibition assay (CellTiter-Glo); format: cell-based; conditions: Mus musculus
Description: Ba/F3_L858R/T790M/C797S Cell Proliferation Inhibition Assay
In the assay, the inhibition effect of the compounds on the proliferation of Ba/F3_L858R/T790M/C797S cells was tested by adopting a CellTiter-Glo method, and the concentration IC50 of the compound for inhibiting half maximal growth of cells was obtained.
Ba/F3_L858R/T790M/C797S cells were constructed by Pharmaron Beijing Co., Ltd.
1640 medium, fetal bovine serum (FBS), Penicillin-Streptomyces, and GlutaMAX-I Supplement, purchased from GIBCO.
as §1, §2
1) Ba/F3_L858R/T790M/C797S cells were seeded in a 384-well plate at a density of 700 cells/well with 30 μL/well.
as §3, §4, §5, §6

[5] = A-431, cell proliferation, 72 h, CellTiter-Glo, read-out: A431 EGFR WT IC50
[6] = BaF3, cell proliferation, 72 h, CellTiter-Glo, read-out: Ba/F3 (Del19/T790M/C797S) IC50
[7] = BaF3, cell proliferation, 72 h, CellTiter-Glo, read-out: Ba/F3 (L858R/T790M/C797S) IC50
[8] = A-431, 72 h, read-out: A431 EGFR WT IC50(nM)
[9] = BaF3, 72 h, read-out: Ba/F3 (Del19/T790M/C797S) IC50(nM)
[10] = BaF3, 72 h, read-out: Ba/F3 (L858R/T790M/C797S) IC50(nM)

Chain of EGFR WT (wild type EGFR) (P00533 25-1210): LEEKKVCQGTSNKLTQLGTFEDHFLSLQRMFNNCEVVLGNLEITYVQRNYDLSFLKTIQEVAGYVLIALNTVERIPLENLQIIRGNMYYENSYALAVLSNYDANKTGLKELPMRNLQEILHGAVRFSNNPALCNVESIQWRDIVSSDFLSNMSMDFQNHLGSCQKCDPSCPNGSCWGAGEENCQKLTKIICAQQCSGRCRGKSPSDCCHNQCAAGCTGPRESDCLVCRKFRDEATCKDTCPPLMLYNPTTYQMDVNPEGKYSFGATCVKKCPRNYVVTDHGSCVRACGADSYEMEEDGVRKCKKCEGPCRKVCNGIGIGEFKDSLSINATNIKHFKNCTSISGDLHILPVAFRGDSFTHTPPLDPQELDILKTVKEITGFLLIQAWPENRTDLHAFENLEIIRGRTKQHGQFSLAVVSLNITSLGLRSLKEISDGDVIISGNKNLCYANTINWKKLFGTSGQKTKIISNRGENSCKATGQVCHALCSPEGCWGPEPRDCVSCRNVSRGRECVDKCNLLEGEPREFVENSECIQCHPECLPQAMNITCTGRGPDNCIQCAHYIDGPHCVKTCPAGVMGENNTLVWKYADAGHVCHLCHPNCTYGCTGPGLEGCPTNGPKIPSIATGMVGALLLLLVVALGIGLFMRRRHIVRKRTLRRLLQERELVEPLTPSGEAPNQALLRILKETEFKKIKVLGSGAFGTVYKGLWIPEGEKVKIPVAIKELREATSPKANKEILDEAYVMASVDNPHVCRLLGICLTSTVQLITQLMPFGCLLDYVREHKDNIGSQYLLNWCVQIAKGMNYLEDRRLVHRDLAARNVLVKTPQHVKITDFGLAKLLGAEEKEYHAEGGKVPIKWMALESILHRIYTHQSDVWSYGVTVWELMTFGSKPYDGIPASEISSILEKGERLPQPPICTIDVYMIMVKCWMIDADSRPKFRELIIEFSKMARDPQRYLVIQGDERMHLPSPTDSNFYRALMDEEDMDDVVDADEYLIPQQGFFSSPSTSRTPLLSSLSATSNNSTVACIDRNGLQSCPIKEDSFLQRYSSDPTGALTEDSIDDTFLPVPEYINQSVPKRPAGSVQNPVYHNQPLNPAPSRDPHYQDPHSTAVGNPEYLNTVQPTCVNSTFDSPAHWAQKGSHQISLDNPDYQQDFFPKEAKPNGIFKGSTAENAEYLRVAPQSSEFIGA

SMILES | IC50 [1] | IC50 [2, 5] | IC50 [3, 6] | IC50 [4, 7] | IC50 [2, 8] | IC50 [3, 9] | IC50 [4, 10]
COc1cc2c(cc1Nc1ncc(Br)c(Nc3ccnc(C)c3NS(C)(=O)=O)n1)-c1cnn(C)c1CCN2C [Compound 136] | 1 to 10 nM | > 1000 nM | 100 to 1000 nM | 100 to 1000 nM |  |  | 
COc1cc2c(cc1Nc1ncc(Br)c(Nc3ccc4nccnc4c3NS(C)(=O)=O)n1)-c1cn(C)nc1CCN2C(C)C [Compound 112] | 1 to 10 nM | 100 to 1000 nM | < 10 nM | 10 to 50 nM |  |  | 
COc1cc2c(cc1Nc1ncc(Br)c(Nc3ccc4nccnc4c3P(C)(C)=O)n1)-c1cnn(C)c1CCN2C1CCN(C2CC(F)(F)C2)CC1 [Compound 96] | 1 to 10 nM | 100 to 1000 nM | < 10 nM | < 10 nM |  |  | 
COc1cc2c(cc1Nc1ncc(Br)c(Nc3ccc4nccnc4c3P(C)(C)=O)n1)-c1cnn(C)c1CN(C)C2 [Compound 11] | 1 to 10 nM | 100 to 1000 nM | < 10 nM | < 10 nM |  |  | 
CCn1ncc2c1CCN(C)c1cc(OC)c(Nc3ncc(Br)c(Nc4ccccc4P(C)(C)=O)n3)cc1-2 [Compound 39] | 10 to 50 nM |  |  |  | 100 to 1000 nM | 10 to 50 nM | 10 to 50 nM
COc1cc2c(cc1Nc1ncc(Br)c(Nc3ccc4nccnc4c3P(C)(C)=O)n1)-c1cn(C)nc1CCN2C [Compound 8] | 1 to 10 nM | 50 to 100 nM | < 10 nM | < 10 nM |  |  | 
COc1cc2c(cc1Nc1ncc(Br)c(Nc3ccccc3P(C)(C)=O)n1)-c1cn(CCN(C)C)nc1CCN2C(C)C [Compound 56] | 1 to 10 nM |  |  |  | 100 to 1000 nM | < 10 nM | 10 to 50 nM

Second part, led by results:

IC50 [1] | IC50 [2, 5] | IC50 [3, 6] | IC50 [4, 7] | SMILES | IC50 [2, 8] | IC50 [3, 9] | IC50 [4, 10]
10 to 50 nM | 100 to 1000 nM | 10 to 50 nM | 10 to 50 nM | COc1cc2c(cc1Nc1ncc(Br)c(Nc3ccccc3P(C)(C)=O)n1)-c1cnn(C)c1CCN2CC(F)(F)F [Compound 73] |  |  | 
1 to 10 nM | 100 to 1000 nM | < 10 nM | 10 to 50 nM | COc1cc2c(cc1Nc1ncc(Br)c(Nc3ccncc3P(C)(C)=O)n1)-c1cnn(C)c1CCN2C(C)C [Compound 97] |  |  | 
1 to 10 nM | 100 to 1000 nM | < 10 nM | 10 to 50 nM | COc1cc2c(cc1Nc1ncc(Br)c(Nc3ccnc(C)c3P(C)(C)=O)n1)-c1cnn(C)c1CCN2C(C)C [Compound 111] |  |  | 
1 to 10 nM | 100 to 1000 nM | < 10 nM | < 10 nM | COc1cc2c(cc1Nc1ncc(C)c(Nc3ccccc3P(C)(C)=O)n1)-c1cnn(C)c1CCN2C [Compound 7] |  |  | 
1 to 10 nM | 100 to 1000 nM | < 10 nM | 10 to 50 nM | CCc1cnc(Nc2cc3c(cc2OC)N(C)CCc2c-3cnn2C)nc1Nc1ccccc1P(C)(C)=O [Compound 25] |  |  | 
10 to 50 nM | 100 to 1000 nM | 10 to 50 nM | 50 to 100 nM | COc1cc2c(cc1Nc1ncc(Br)c(Nc3ccccc3P(C)(C)=O)n1)-c1cnn(C)c1CCC2 [Compound 38] |  |  | 
1 to 10 nM | 50 to 100 nM | < 10 nM | < 10 nM | COc1cc2c(cc1Nc1ncc(Br)c(Nc3ccc(F)cc3P(C)(C)=O)n1)-c1cnn(C)c1CCN2C [Compound 43] |  |  | 
